Here are results for nine molecules from patent publication US8785439B2, “2,5,7-substituted oxazolopyrimidine derivatives” (Sanofi, priority 2010, dated 2014).

For the test, the target named is T1, human Edg-1 receptor (Homo sapiens, UniProt P21453).
T1 construct: FLAG (N); expressed in transfected cells; membrane preparation
Kind of test: GTP-γ-S assay using human Edg-1 receptors (SPA, CHO Flp-In cell membrane preparation). Type of test: biochemical. Particulars: test compound at 10 μM; high control 10 μM S1P regarded as 100% activation; background-corrected; triplicate; read-out: % Activation (Edg-1 receptor activation in percent of the activation by 10 μM S1P). In a few lines:
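Membranes from CHO Flp-In cells stably overexpressing N-terminally FLAG-tagged human Edg-1 were used in a scintillation-proximity GTP-γ-S binding assay to measure receptor activation by compounds.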

Molecules are shown by their SMILES.

T1 sequence (P21453 whole entry): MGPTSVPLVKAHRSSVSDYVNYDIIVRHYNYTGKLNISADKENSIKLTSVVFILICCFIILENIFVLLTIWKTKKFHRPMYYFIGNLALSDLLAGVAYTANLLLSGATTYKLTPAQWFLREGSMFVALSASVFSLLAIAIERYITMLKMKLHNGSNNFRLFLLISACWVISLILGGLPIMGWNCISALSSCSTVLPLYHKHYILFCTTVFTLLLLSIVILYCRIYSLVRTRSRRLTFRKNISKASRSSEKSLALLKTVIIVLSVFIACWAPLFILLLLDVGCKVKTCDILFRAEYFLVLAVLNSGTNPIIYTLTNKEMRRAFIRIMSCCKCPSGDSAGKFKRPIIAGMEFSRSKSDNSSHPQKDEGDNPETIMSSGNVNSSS

For the molecule `CCCOc1nc(Oc2ccc(Cl)cc2C)nc2oc(-c3cccc(C)c3)nc12` [Example 88, 5-(4-chloro-2-methyl-phenoxy)-7-propoxy-2-(3-methyl-phenyl)-oxazolo[5,4-d]pyrimidine], the activation at 10 µM was 86%.
Next, `CCCOc1nc(Oc2cc(F)ccc2C)nc2oc(-c3cc(F)ccc3Cl)nc12` [Example 79, 2-(2-chloro-5-fluoro-phenyl)-5-(5-fluoro-2-methyl-phenoxy)-7-propoxy-oxazolo[5,4-d]pyrimidine]: 64%.
Next, `CCCOc1nc(Oc2cncc(F)c2)nc2oc(-c3ccc(Cl)c(Cl)c3)nc12` [Example 160, 2-(3,4-dichloro-phenyl)-5-(5-fluoro-pyridin-3-yloxy)-7-propoxy-oxazolo[5,4-d]pyrimidine]: 75%.
In the case of `CCCOc1nc(Oc2ccc(CC)cc2)nc2oc(-c3cccc(C)c3)nc12` [Example 122, 5-(4-ethyl-phenoxy)-7-propoxy-2-(3-methyl-phenyl)-oxazolo[5,4-d]pyrimidine], the activation at 10 µM came out at 65%.
The value for `CCCOc1nc(Oc2ccccc2F)nc2oc(-c3cccnc3)nc12` [Example 107, 5-(2-fluoro-phenoxy)-7-propoxy-2-pyridin-3-yl-oxazolo[5,4-d]pyrimidine] was 129%.
Take `CCCOc1nc(Oc2c(C)cccc2C)nc2oc(-c3cccc(C)c3)nc12` [Example 132, 5-(2,6-dimethyl-phenoxy)-7-propoxy-2-(3-methyl-phenyl)-oxazolo[5,4-d]pyrimidine]: the activation at 10 µM amounted to 129%.
For `CCCOc1nc(OCC2COC(C)(C)O2)nc2oc(-c3ccc(Cl)c(Cl)c3)nc12` (stereo not drawn) [Example 45, 2-(3,4-dichloro-phenyl)-5-(2,2-dimethyl-[1,3]dioxolan-4-ylmethoxy)-7-propoxy-oxazolo[5,4-d]pyrimidine], the activation at 10 µM was determined as 74%.
Next, `CCCOc1nc(O[C@H]2CCCC[C@@H]2F)nc2oc(-c3cccc(F)c3)nc12` [Example 48, 5-((1S,2S)-2-fluoro-cyclohexyloxy)-2-(3-fluoro-phenyl)-7-propoxy-oxazolo[5,4-d]pyrimidine]: 105%; `CCOc1nc(Oc2cc(C)nn2C)nc2oc(-c3cccc(C)c3)nc12` [Example 26, 5-(2,5-dimethyl-2H-pyrazol-3-yloxy)-7-ethoxy-2-(3-methyl-phenyl)-oxazolo[5,4-d]pyrimidine]: 101%.
